# Test results taken from US10273240B2, “Cortistatin analogues, syntheses, and uses thereof” (President and Fellows of Harvard College, priority 2015, dated 2019).
# Like-named read-outs stand apart in the source and are kept apart here.
# Columns and labels:
# MOLM-14 = assay: Cell growth assay, MOLM-14; type: cell-based; conditions: Homo sapiens
# Method: All media was supplemented with 100 U/mL penicillin and 100 μg/mL streptomycin. Human cancer cell lines were grown in the following media: MV4; 11, K562, MOLM-14 in RPMI-1640, 10% FBS; SKNO-1 in RPMI-1640, 10% FBS, and 10 ng/mL GM-CSF; MV4;11 and K562 were from ATCC. SKNO-1 was from DSMZ.
# (§1) Cell Culture. All media was supplemented with 100 U/mL penicillin and 100 μg/mL streptomycin. Human cancer cell lines were grown in the following media: MV4; 11, RS4; 11, K562, HEL, MOLM-14, MEG-01 in RPMI-1640, 10% FBS; SET-2 in RPMI-1640, 20% FBS; UKE-1 in RPMI-1640, 10% FBS, 10% horse serum and 1 μM hydrocortisone; SKNO-1 and TF-1 in RPMI-1640, 10% FBS, and 10 or 2 ng/mL GM-CSF, respectively; HaCaT in DMEM, 10% FBS; and HCT116 in McCoy's 5 A, 10% FBS (proliferation assay) or DMEM, 10% FBS (gene expression study). HepG2, MV4;11, RS4;11, MEG-01, TF-1, HCT116 and K562 were from ATCC. SKNO-1 was from DSMZ. HEL, UKE-1, and SET-2 were provided by Ross L. Levine and HaCaT, MV4;11-mCLP, and MOLM-14 by Van Wilson, Andrew L. Kung, and Scott A. Armstrong, respectively. MOLM-14 cells were authenticated by STR profiling and flow cytometry and all cell lines were routinely tested and found to be negative for mycoplasma.
# [1] = molecular target: T1, CDK9 in MOLM-14 cell lysate (Homo sapiens, UniProt P50750); assay: Native kinase capture immunoblot, CDK9; type: binding
# T1 construct: endogenous in cells; host or cells: MOLM-14 cell lysate
# Method: (§2) Native Kinase Capture Immunoblot and Native Kinome-Wide Profiling. […] Experiment was performed twice with one immunoblot shown.
# [2] = system: luciferase-expressing MV4;11 cells; assay: MV4;11 xenotransplant model of disseminated human AML; type: in vivo; conditions: IP once daily for 15 days, NSG mice
# Method: In Vivo Studies. Studies were performed at Charles River Laboratories (CRL) and Dana Farber Cancer Institute (DFCI) where indicated and approved by Harvard University and each institution's respective animal care and use committee. For pharmacokinetic studies, serial blood samples from 7 week old male CD-1 mice (n=3 per timepoint) were collected (no blinding) into K2EDTA tubes, centrifuged, transferred into 96-well plates (matrix tubes), stored at −20° C., and analysed by HPLC/MS/MS (in-life performed at CRL). Study size was determined by the need for three blood samples per timepoint with three blood samples collected per mouse. The MV4; 11 xenograft model were performed as previously described (Etchin, J. et al. Antileukemic activity of nuclear export inhibitors that spare normal hematopoietic cells. Leukemia 27, 66-74 (2013); in-life performed at DFCI) Two million MV4;11-mCLP cells were injected into the tail vein of 7-week-old female NOD-SCID-IL2Rcγ^null (NSG) mice (The Jackson Laboratory) and tumor burden was assessed by bioluminescence imaging (BLI) using an IVIS Spectrum system (Caliper Life Sciences). […] After 30 days, blood counts were obtained (Hemavet 950 F, Drew Scientific) and spleen, femur, and peripheral blood cells were collected and analysed by flow cytometry (LSR Fortessa, BD Biosciences) from 3 mice/group. […]
# HCT116 = assay: Cell growth assay, HCT116 (CellTiter-Blue); type: cell-based; conditions: Homo sapiens
# Method: as §1
# [3] = molecular target: T2, ROCK1 in MOLM-14 cell lysate (Homo sapiens, UniProt Q13464); assay: Native kinase capture immunoblot, ROCK1; type: binding
# T2 construct: endogenous in cells; host or cells: MOLM-14 cell lysate
# Method: as §2
# T2 sequence (Q13464 whole entry): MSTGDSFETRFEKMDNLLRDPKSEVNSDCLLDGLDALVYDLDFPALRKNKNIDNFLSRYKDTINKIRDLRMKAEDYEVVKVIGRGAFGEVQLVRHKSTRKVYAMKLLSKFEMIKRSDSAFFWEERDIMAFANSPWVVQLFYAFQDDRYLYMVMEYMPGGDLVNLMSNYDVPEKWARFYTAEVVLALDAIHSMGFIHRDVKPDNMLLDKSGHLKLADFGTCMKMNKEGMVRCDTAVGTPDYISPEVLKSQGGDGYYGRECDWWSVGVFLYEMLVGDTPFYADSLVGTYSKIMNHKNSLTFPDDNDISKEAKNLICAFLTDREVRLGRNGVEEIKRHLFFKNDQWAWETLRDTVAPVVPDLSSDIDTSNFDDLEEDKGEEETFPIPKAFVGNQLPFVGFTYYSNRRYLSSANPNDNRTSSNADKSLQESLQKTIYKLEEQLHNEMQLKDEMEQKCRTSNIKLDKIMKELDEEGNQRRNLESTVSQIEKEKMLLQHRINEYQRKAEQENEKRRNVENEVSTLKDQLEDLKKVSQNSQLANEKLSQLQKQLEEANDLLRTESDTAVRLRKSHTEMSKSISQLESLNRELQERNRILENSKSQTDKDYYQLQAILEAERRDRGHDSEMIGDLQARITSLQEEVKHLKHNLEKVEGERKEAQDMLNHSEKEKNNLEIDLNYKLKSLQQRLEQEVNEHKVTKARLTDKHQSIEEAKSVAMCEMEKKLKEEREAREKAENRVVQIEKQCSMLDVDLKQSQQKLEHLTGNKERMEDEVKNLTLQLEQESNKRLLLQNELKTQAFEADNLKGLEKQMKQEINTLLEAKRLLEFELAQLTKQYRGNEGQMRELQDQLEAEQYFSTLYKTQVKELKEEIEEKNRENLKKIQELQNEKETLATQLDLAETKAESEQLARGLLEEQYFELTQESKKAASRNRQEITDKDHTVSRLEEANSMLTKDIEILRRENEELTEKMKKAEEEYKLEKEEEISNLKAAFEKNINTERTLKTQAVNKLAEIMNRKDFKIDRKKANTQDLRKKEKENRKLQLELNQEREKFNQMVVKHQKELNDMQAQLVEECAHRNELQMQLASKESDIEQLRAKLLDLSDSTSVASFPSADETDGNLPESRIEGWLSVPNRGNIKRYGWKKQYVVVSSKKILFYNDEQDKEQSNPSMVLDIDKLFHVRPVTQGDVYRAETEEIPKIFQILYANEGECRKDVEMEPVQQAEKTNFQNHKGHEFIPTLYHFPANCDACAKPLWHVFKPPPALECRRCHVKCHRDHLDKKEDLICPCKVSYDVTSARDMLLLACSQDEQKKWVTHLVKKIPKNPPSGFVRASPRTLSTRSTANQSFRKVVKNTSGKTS
# T1 sequence (P50750 whole entry): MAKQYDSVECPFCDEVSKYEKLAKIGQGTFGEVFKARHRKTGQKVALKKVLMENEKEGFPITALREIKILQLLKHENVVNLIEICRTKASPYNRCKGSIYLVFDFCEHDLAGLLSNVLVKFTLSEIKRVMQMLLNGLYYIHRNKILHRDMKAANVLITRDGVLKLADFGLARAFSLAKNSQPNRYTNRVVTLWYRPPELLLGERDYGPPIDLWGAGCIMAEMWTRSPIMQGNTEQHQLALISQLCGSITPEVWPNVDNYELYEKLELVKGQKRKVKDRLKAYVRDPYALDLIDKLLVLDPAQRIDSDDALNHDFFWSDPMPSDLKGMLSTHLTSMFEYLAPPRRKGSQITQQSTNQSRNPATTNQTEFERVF
# T1 sequence (O60563 whole entry partner): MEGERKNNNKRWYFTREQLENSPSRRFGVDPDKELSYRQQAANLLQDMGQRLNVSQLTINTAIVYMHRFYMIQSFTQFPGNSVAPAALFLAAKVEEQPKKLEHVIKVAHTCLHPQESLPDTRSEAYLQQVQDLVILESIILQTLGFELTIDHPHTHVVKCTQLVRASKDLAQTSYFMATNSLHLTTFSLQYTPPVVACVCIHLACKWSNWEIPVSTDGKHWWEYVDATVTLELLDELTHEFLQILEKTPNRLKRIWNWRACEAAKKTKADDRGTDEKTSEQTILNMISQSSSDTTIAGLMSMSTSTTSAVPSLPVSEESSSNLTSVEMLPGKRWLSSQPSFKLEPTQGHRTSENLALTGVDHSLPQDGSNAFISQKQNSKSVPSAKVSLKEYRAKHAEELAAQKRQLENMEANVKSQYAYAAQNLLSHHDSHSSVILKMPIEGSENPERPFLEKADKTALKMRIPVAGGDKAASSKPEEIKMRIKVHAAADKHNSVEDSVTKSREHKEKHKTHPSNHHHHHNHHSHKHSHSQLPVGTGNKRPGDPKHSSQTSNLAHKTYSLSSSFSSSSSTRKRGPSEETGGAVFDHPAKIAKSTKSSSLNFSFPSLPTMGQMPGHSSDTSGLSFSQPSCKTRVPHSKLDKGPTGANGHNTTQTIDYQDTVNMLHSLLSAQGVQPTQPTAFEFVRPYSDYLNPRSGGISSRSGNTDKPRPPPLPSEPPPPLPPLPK
structure (smiles),measurement,setting,value
"CN(C)[C@H]1C[C@@]23CC[C@@]4(O2)C(=CC[C@@]2(C)[C@@H](c5ccc6ccncc6c5)CC[C@H]24)C=C3[C@@H](O)[C@@H]1O [CA, cortistatin A]",GI50,"MOLM-14; MOLM-14, 240 h, CA, after 10 days, read-out: Mean GI50 (nM), MOLM-14",5 nM
same,GI50,"MOLM-14; MOLM-14, 240 h, read-out: MOLM14 GI50 day 10",5 nM
same,GI50,"MOLM-14; MOLM-14, Table 5, read-out: GI50 (nM), MOLM-14",5 nM
same,binding of CDK9 (no binding at up to),[1],> 2500 nM
same,"disease progression (bioluminescence, spleen weight, leukemia cell burden, survival)",[2],dose-dependent reduction in disease progression
same,median extension in survival,[2],29.5 days
same,GI50,"HCT116; HCT-116, 168 h, after 7 days, read-out: Mean GI50 (nM), HCT116",> 1000 nM
same,GI50,"HCT116; HCT-116, Table 5, read-out: GI50 (nM), HCT116",> 1000 nM
same,binding of ROCK1 (no binding up to),[3],> 2500 nM
